Measurements published in US9062051B2, “Compounds and pharmaceutical compositions thereof for the treatment of proliferative disorders” (GALAPAGOS NV, priority 2014, dated 2015).

Experiments:
Assay type in all cases: biochemical
[1] = target: T1, EphA2 (UniProt Ref: P29317) (Homo sapiens, UniProt P29317); assay: EphA2 assay (Reaction Biology HotSpot radioactive kinase assay); conditions: ATP 10 μM; read-out: EphA2 potency IC50
T1 construct: purchased Reaction Biology
Experimental: Inhibition of EphA2 (UniProt Ref: P29317) by a test compound is determined by a commercially available Reaction Biology proprietary nanoliter radioactive HotSpot^SM assay (Reaction Biology, One great valley parkway, Suite 2, Malvern Pa., 19355, USA). The principle of the assay consists of the measurement of incorporated ^33P into poly[Glu:Tyr] (4:1) (0.2 mg/mL) when the substrate is phosphorylated by the enzyme using [^33P]-γ-ATP and ATP (10 μM).
To determine the IC50, a serial dilution of compound is tested starting from 10, or 3 μM (highest dilution) with a 1/3 dilution.

[2] = target: T2, Recombinant EphA7 (Homo sapiens, UniProt Q15375); assay: EphA7 assay (33P incorporation into poly GT, filter plate); conditions: EphA7 potency; 0.15 μM ATP; read-out: IC50
T2 construct: purchased Carna 08-126
Experimental: (§1) The principle of the assay consists of the measurement of incorporated ^33P into the substrate poly GT when phosphorylated by the enzyme EphA7 using [^33P]-γ-ATP and ATP. Unincorporated ^33P is removed by loading the samples on a filter plate (using a harvester, Perkin Elmer) and 6 subsequent washing steps. ^33P incorporated in polyGT is measured on a Topcount after addition of microscint to the filter plates (Perkin Elmer).
Recombinant EphA7 (Carna Cat#08-126, 2 ng per well) was incubated with 0.1 mg/mL Poly(Glu,Tyr)sodium salt (4:1), MW 20 000-50 000 (Sigma catalog number P0275) in kinase reaction buffer (10 mM MOPS pH 7.2, 5 mM DTT, 0.01% Triton-X100, 5 mM MnCl2, 0.5 mM Na3VO4, 5 mM beta-glycerolphosphate), 0.15 μM non-radioactive ATP, 0.125 μCi/25 μl ^33P-gamma-ATP (Perkin Elmer, catalog number NEG602K) final concentrations with or without 5 μL containing test compound or vehicle (DMSO, 1% final concentration), in a total volume of 25 μL, in a polypropylene 96-well plate (Greiner, V-bottom). After 90 min at 30° C., reactions were stopped by adding of 25 μL/well of 150 mM phosphoric acid. All of the terminated kinase reaction was transferred to prewashed (75 mM phosphoric acid) 96 well filter plates (Perkin Elmer catalog number 6005177) using a cell harvester (Perkin Elmer). Plates were washed 6 times with 300 μL per well of a 75 mM phosphoric acid solution and the bottom of the plates was sealed. 40 μL/well of Microscint-20 was added, the top of the plates was sealed and readout was performed using the Topcount (Perkin Elmer). The ability of a test compound to inhibit the kinase activity was determined using counts per minutes (cpm) measured by the Topcount as:
(§2) Cpm (cpd): cpm determined for sample with test compound present
(§3) Cpm (control): cpm determined for sample with positive control inhibitor (10 μM staurosporine)
(§4) Cpm (vehicle): cpm determined in the presence of vehicle (1% DMSO)
(§5) Dose dilution series were prepared for the compounds enabling the testing of dose-response effects in the EphA7 assay and the calculation of the IC50 for each compound. Each compound was routinely tested at concentration of 20 μM followed by a 1/5 serial dilution, 10 points in a final concentration of 1% DMSO. When potency of compound series increased, more dilutions may be prepared and/or the top concentration may be lowered (e.g. 5 μM, 1 μM).

[3] = target: T3, Recombinant EphB2 (Homo sapiens, UniProt P29323); assay: EphB2 assay (33P incorporation into poly GT, filter plate); conditions: read-out: EphB2 potency IC50
T3 construct: purchased Carna 08-129
T3 sequence (P29323 19-986 isoform P29323-2 limits assumed): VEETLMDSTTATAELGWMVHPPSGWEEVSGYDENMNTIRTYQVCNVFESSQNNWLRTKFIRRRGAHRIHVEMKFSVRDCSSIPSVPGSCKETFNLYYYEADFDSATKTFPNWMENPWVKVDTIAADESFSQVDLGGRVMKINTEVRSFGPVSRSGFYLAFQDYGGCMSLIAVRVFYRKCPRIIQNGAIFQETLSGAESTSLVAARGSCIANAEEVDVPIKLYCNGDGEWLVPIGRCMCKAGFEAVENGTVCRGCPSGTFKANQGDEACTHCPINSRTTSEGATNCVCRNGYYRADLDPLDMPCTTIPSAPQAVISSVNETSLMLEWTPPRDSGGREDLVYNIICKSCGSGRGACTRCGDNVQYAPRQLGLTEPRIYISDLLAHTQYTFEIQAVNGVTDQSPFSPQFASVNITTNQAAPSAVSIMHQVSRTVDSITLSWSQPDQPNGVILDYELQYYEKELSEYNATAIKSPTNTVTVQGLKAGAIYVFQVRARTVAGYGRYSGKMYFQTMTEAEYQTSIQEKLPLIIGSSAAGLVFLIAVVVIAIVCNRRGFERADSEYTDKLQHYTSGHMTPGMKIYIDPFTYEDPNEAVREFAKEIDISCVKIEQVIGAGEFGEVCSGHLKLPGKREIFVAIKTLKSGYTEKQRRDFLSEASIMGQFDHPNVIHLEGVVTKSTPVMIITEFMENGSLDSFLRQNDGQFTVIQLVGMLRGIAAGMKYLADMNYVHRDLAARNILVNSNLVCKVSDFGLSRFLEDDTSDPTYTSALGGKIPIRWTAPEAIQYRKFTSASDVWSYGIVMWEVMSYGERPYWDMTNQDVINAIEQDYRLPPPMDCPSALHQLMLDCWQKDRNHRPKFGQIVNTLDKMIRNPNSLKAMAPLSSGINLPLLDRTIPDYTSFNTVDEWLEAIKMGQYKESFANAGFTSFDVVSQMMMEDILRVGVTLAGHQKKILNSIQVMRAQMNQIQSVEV
Experimental: as §1, with “EphB2” for “EphA7”
Recombinant EphB2 (Carna Cat#08-129, 0.6 ng per well) was incubated with 0.05 mg/mL Poly(Glu,Tyr)sodium salt (4:1), MW 20 000-50 000 (Sigma catalog number P0275) in kinase reaction buffer (10 mM MOPS pH 7.2, 5 mM DTT, 0.01% Triton-X100, 5 mM MnCl2, 0.5 mM Na3VO4, 5 mM beta-glycerolphosphate), 0.5 μM non-radioactive ATP, 0.25 μCi/25 μl ^33P-gamma-ATP (Perkin Elmer, catalog number NEG602K) final concentrations with or without 5 μL containing test compound or vehicle (DMSO, 1% final concentration), in a total volume of 25 μL, in a polypropylene 96-well plate (Greiner, V-bottom). After 45 min at 30° C., reactions were stopped by adding of 25 μL/well of 150 mM phosphoric acid. The experiment was then conducted as described for EphA7. The ability of a test compound to inhibit the kinase activity was determined using counts per minutes (cpm) measured by the Topcount as:
as §2, §3, §4
as §5, with “EphB2” for “EphA7”

T1 sequence (P29317 24-976): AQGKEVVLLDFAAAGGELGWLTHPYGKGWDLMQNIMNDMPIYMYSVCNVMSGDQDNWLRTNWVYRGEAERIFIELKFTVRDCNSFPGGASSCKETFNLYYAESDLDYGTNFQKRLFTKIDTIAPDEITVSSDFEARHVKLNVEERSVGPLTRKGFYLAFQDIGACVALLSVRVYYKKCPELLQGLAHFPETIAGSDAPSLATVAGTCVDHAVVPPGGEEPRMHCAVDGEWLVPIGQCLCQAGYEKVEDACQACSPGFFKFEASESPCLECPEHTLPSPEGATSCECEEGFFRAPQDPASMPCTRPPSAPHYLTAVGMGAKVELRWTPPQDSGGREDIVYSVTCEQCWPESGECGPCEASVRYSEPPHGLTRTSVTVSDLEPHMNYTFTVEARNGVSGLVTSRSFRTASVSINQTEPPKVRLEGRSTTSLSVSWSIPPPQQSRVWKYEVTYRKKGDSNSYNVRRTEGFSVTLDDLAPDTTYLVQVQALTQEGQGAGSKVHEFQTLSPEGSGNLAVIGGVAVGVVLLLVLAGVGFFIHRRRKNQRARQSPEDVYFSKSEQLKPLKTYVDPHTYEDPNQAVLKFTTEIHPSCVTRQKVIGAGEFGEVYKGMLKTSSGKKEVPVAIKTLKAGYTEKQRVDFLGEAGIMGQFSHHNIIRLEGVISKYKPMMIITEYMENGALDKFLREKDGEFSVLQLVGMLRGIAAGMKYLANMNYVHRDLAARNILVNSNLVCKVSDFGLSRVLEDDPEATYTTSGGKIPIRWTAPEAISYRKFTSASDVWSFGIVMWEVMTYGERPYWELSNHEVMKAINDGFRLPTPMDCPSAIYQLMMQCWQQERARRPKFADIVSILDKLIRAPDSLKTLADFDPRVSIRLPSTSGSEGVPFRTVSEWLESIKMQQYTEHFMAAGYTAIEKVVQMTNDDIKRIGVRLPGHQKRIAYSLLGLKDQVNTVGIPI
T2 sequence (Q15375 579-998 limits assumed): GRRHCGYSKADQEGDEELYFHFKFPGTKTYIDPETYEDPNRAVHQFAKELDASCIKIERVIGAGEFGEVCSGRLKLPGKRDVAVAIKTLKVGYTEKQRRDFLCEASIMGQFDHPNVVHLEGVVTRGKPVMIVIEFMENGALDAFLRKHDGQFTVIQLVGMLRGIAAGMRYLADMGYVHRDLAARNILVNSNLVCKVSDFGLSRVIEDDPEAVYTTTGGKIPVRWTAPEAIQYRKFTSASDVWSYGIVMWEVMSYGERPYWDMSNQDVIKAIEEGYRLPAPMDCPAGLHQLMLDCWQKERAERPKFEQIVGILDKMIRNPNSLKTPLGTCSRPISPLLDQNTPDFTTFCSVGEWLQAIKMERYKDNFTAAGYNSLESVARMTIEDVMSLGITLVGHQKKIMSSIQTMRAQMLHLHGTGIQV

| SMILES | IC50 [1] | IC50 [2] | IC50 [3] |
| --- | --- | --- | --- |
| Cc1cc(OCCN2CCOCC2)cc(C(=O)Nc2ccc(C)c(-c3ccc4c(C(C)O)n[nH]c4n3)c2)c1 (stereo not shown) [Compound 28, N-{3-[3-(1-Hydroxy-ethyl)-1H-pyrazolo[3,4-b]pyridin-6-yl]-4-methyl-phenyl}-3-methyl-5-(2-morpholin-4-yl-ethoxy)-benzamide] | 25 to 50 nM | > 1000 nM | 0.01 to 25 nM |
| CCc1n[nH]c2nc(-c3cc(NC(=O)c4cc(C)cc(OCCN)c4)ccc3C)ccc12 [Compound 30, 3-(2-Amino-ethoxy)-N-[3-(3-ethyl-1H-pyrazolo[3,4-b]pyridin-6-yl)-4-methyl-phenyl]-5-methyl-benzamide] | 0.01 to 25 nM | 250 to 500 nM | 0.01 to 25 nM |
| CCc1n[nH]c2nc(-c3cc(NC(=O)c4cc(C)cc(OCCCN)c4)ccc3C)ccc12 [Compound 31, 3-(3-Amino-propoxy)-N-[3-(3-ethyl-1H-pyrazolo[3,4-b]pyridin-6-yl)-4-methyl-phenyl]-5-methyl-benzamide] | 0.01 to 25 nM | 0.01 to 250 nM | 0.01 to 25 nM |
| COc1cc(OC)cc(C(=O)Nc2cnc(C)c(-c3ccc4c(C5CC5)n[nH]c4n3)c2)c1 [Compound 34, N-(5-(3-cyclopropyl-1H-pyrazolo[3,4-b]pyridin-6-yl)-6-methylpyridin-3-yl)-3,5-dimethoxybenzamide] |  | > 1000 nM | 0.01 to 25 nM |
| CCc1n[nH]c2nc(-c3cc(NC(=O)c4cc(OCCN5CCOCC5)cc(C(F)(F)F)c4)ccc3C)ccc12 [Compound 36, N-[3-(3-Ethyl-1H-pyrazolo[3,4-b]pyridin-6-yl)-4-methyl-phenyl]-3-(2-morpholin-4-yl-ethoxy)-5-trifluoromethyl-benzamide] | 0.01 to 25 nM | 500 to 1000 nM | > 100 nM |
| CCc1n[nH]c2nc(-c3cc(NC(=O)c4cc(OC)cc(C5CC5)c4)cnc3C)ccc12 [Compound 38, 3-Cyclopropyl-N-[5-(3-ethyl-1H-pyrazolo[3,4-b]pyridin-6-yl)-6-methyl-pyridin-3-yl]-5-methoxy-benzamide] | 0.01 to 25 nM | 250 to 500 nM | > 100 nM |
| CCc1n[nH]c2nc(-c3cc(NC(=O)c4cc(OC)cc(OCCN5CCOCC5)c4)cnc3C)ccc12 [Compound 40, N-[5-(3-Ethyl-1H-pyrazolo[3,4-b]pyridin-6-yl)-6-methyl-pyridin-3-yl]-3-methoxy-5-(2-morpholin-4-yl-ethoxy)-benzamide] |  | > 1000 nM | > 100 nM |
| CCc1n[nH]c2nc(-c3cc(NC(=O)c4cccc(C(F)(F)F)c4)cnc3C)ccc12 [Compound 42, N-[5-(3-Ethyl-1H-pyrazolo[3,4-b]pyridin-6-yl)-6-methyl-pyridin-3-yl]-3-trifluoromethyl-benzamide] | 50 to 100 nM | > 1000 nM | > 100 nM |
| CCc1n[nH]c2nc(-c3cc(NC(=O)c4cc(OC)cc(OCCCN)c4)ccc3C)ccc12 [Compound 45, 3-(3-Amino-propoxy)-N-[3-(3-ethyl-1H-pyrazolo[3,4-b]pyridin-6-yl)-4-methyl-phenyl]-5-methoxy-benzamide] | 0.01 to 25 nM | 250 to 500 nM | 0.01 to 25 nM |
| CCc1n[nH]c2nc(-c3cc(NC(=O)c4cc(OC)cc(OCCCN)c4)cnc3C)ccc12 [Compound 46, 3-(3-Amino-propoxy)-N-[5-(3-ethyl-1H-pyrazolo[3,4-b]pyridin-6-yl)-6-methyl-pyridin-3-yl]-5-methoxy-benzamide] | 0.01 to 25 nM | 500 to 1000 nM | 25 to 50 nM |
| Cc1ccc(NC(=O)c2cccc(C(F)(F)F)c2)cc1-c1ccc2c([C@@H](C)O)n[nH]c2n1 [Compound 56, N-{3-[3-((R)-1-Hydroxy-ethyl)-1H-pyrazolo[3,4-b]pyridin-6-yl]-4-methyl-phenyl}-3-trifluoromethyl-benzamide] | 0.01 to 25 nM | > 1000 nM | 0.01 to 25 nM |
